# From patent US9856220B2 (AbbVie Deutschland GmbH & Co. KG, priority 2011, dated 2018)
# pIC50: −log10 of the molar value.
# How the values were obtained:
# [1] = Determination of the microsomal half-life / microsomal clearance, human liver microsomes; type: in vitro ADME; conditions: 0.5 μM test substance, 0.25 mg of microsomal protein/ml, pH 7.4, 37° C.
# Method: (§1) b) Determination of the Microsomal Half-Life:
# (§2) The metabolic stability of the compounds of the invention was determined in the following assay.
# (§3) The test substances were incubated in a concentration of 0.5 μM as follows:
# (§4) 0.5 μM test substance are preincubated together with liver microsomes from different species (from rat, human or other species) (0.25 mg of microsomal protein/ml) in 0.05 M potassium phosphate buffer of pH 7.4 in microtiter plates at 37° C. for 5 min. The reaction is started by adding NADPH (1 mg/mL). After 0, 5, 10, 15, 20 and 30 min, 50 μl aliquots are removed, and the reaction is immediately stopped and cooled with the same volume of acetonitrile. The samples are frozen until analyzed. The remaining concentration of undegraded test substance is determined by MSMS. The half-life (T½) is determined from the gradient of the signal of test substance/unit time plot, it being possible to calculate the half-life of the test substance, assuming first order kinetics, from the decrease in the concentration of the compound with time. The microsomal clearance (mCl) is calculated from mCl=ln 2/T½/(content of microsomal protein in mg/ml)×1000 [ml/min/mg]
# [2] = Determination of the microsomal half-life / microsomal clearance, rat liver microsomes; type: in vitro ADME; conditions: 0.5 μM test substance, 0.25 mg of microsomal protein/ml, pH 7.4, 37° C.
# Method: as §1, §2, §3, §4
# PDE10A = PDE10A (Homo sapiens (Human), UniProt Q9Y233); experiment: Measurement of PDE activity (recombinant PDE, cAMP HTRF); type: biochemical; conditions: 20 nM cyclic nucleotide substrate, 60 minutes at 29 C
# Method: a) Measurement of PDE Activity
# The recombinant PDE proteins are used in in vitro enzymatic reaction for measurement of PDE activity. These recombinant proteins, including PDE10A (human, rat and mouse PDE10) and isoforms of PDEs 1, 3, 4, and 5, were purchased from commercial vendor BPS Bioscience. The enzymatic activity of PDEs was determined by cAMP measurement kit from CisBio (IBA) using HTRF technology.
# The PDE enzymatic reaction was carried out in assay buffer (20 mM Tris-HCl pH7.5, 10 mM MgCl2, 0.1% bovine serum albumin) containing enzyme and substrate. […] The substrate cyclic nucleotide (cAMP or cGMP) concentration used in the assay was 20 nM for PDE10, and 100 nM for other PDEs. The inhibitory effect of compound was determined by incubating various concentration of inhibitor in the enzymatic assay. […] Next, the compound at varying concentration was mixed with PDE enzyme. The reaction was initiated by addition of cyclic nucleotide substrate, and incubated for 60 minutes at 29 C. The reaction was stopped by addition of lysis buffer from assay kit. The cAMP-d2 and anti-cAMP cryptate in the lysis buffer detected the level of cAMP left from the PDE hydrolysis reaction. […] Thus, IC50 value of inhibitor can be obtained by plotting inhibitor concentration against PDE activity at that concentration.
# Chain of PDE10A (Q9Y233 whole entry, species assumed): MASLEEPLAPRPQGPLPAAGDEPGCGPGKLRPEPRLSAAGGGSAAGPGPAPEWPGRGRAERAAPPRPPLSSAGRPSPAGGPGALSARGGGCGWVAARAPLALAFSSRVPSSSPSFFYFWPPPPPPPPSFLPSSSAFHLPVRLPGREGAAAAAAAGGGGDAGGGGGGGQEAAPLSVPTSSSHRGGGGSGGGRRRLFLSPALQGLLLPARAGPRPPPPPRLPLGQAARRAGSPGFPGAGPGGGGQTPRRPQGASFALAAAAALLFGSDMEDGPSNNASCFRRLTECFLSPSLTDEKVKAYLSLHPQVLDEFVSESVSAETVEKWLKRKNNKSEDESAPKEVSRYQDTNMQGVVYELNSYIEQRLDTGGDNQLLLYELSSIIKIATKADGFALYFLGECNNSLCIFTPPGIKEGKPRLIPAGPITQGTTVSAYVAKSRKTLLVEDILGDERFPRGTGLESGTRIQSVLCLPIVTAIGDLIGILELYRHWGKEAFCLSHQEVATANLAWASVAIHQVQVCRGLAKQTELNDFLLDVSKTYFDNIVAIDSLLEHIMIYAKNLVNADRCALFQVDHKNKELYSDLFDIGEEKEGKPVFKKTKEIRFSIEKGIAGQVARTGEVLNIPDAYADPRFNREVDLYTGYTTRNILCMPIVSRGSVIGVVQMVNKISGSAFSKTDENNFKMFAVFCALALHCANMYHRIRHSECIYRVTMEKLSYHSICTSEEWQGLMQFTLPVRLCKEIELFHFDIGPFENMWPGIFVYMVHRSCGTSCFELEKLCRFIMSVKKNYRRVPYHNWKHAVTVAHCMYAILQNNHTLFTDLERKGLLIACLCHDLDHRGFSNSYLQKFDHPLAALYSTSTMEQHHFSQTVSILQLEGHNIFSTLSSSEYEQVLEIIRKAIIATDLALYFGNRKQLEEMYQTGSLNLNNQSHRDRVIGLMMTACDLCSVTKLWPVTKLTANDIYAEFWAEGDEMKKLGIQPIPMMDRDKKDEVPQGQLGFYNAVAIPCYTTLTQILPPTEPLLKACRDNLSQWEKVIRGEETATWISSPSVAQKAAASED
smiles,measurement,setting,value
"CCC(CC)n1cc(C(=O)NCc2cscn2)c2cc(OC)c(OC)cc2c1=O [Example 203, 2-(1-Ethyl-propyl)-6,7-dimethoxy-1-oxo-1,2-dihydro-isoquinoline-4-carboxylic acid (thiazol-4-ylmethyl)-amide]",Human mCl,[1],++ (<100 μl min^−1 mg^−1)
same,Rat mCl,[2],++ (<100 μl min^−1 mg^−1)
"CCn1cc(C(=O)NCc2ccc(C(F)F)cc2)c2cc(OC)c(OC)cc2c1=O [Example 315, N-[[4-(Difluoromethyl)phenyl]methyl]-2-ethyl-6,7-dimethoxy-1-oxo-isoquinoline-4-carboxamide]",Human mCl,[1],++ (<100 μl min^−1 mg^−1)
same,Rat mCl,[2],++ (<100 μl min^−1 mg^−1)
"CCn1cc(C(=O)NCc2cscn2)c2cc(OC)c(OC)cc2c1=O [Example 309, 2-Ethyl-6,7-dimethoxy-1-oxo-N-(thiazol-4-ylmethyl)isoquinoline-4-carboxamide]",Human mCl,[1],++ (<100 μl min^−1 mg^−1)
same,pIC50,PDE10A,6.30 to 6.70
"CCn1cc(C(=O)NC2CCc3sccc32)c2cc(OC)c(OC)cc2c1=O (single isomer, unassigned; (+)) [Example 204, (+)-2-Ethyl-6,7-dimethoxy-1-oxo-1,2-dihydro-isoquinoline-4-carboxylic acid (5,6-dihydro-4H-cyclopenta[b]thiophen-4-yl)-amide]",Human mCl,[1],+ (100-220 μl min^−1 mg^−1)
same,Rat mCl,[2],++ (<100 μl min^−1 mg^−1)
"CCn1cc(C(=O)NCc2ccc(C(F)(F)F)cc2)c2cc(OC)c(OC)cc2c1=O [Example 310, 2-Ethyl-6,7-dimethoxy-1-oxo-N-[[4-(trifluoromethyl)phenyl]-methyl]isoquinoline-4-carboxamide]",Human mCl,[1],++ (<100 μl min^−1 mg^−1)
same,Rat mCl,[2],++ (<100 μl min^−1 mg^−1)
"CCn1cc(C(=O)N[C@@H](C)c2ccc(C)cc2)c2cc(OC)c(OC)cc2c1=O [Example 311, 2-Ethyl-6,7-dimethoxy-1-oxo-N-[(1S)-1-(p-tolyl)ethyl]isoquinoline-4-carboxamide]",Human mCl,[1],++ (<100 μl min^−1 mg^−1)
same,pIC50,PDE10A,6.30 to 6.70
"CCn1cc(C(=O)NCc2ccccc2)c2cc(OC)c(OC)cc2c1=O [Example 26, 2-Ethyl-6,7-dimethoxy-1-oxo-1,2-dihydro-isoquinoline-4-carboxylic acid benzylamide]",pIC50,PDE10A,6.70 to 7.00
"CCC(CC)n1cc(C(=O)NCc2cc(F)cc(F)c2)c2cc(OC)c(OC)cc2c1=O [Example 188, 2-(1-Ethyl-propyl)-6,7-dimethoxy-1-oxo-1,2-dihydro-isoquinoline-4-carboxylic acid 3,5-difluoro-benzylamide]",pIC50,PDE10A,6.70 to 7.00
"CCC(CC)n1cc(C(=O)NC2CCc3c(C)cccc32)c2cc(OC)c(OC)cc2c1=O (centres unmarked) [Example 254, 6,7-Dimethoxy-N-(4-methyl-2,3-dihydro-1H-inden-1-yl)-1-oxo-2-(pentan-3-yl)-1,2-dihydroisoquinoline-4-carboxamide]",pIC50,PDE10A,> 7.00
"CCn1cc(C(=O)NC2CCc3c(F)cccc32)c2cc(OC)c(OC)cc2c1=O (centres unmarked) [Example 173, 2-Ethyl-N-(4-fluoro-2,3-dihydro-1H-inden-1-yl)-6,7-dimethoxy-1-oxo-1,2-dihydroisoquinoline-4-carboxamide]",pIC50,PDE10A,6.30 to 6.70
"CCCCNC(=O)c1cn(CCc2ccc3ccccc3n2)c(=O)c2cc(OC)ccc12 [Example 182, 7-Methoxy-1-oxo-2-(2-quinolin-2-yl-ethyl)-1,2-dihydro-isoquinoline-4-carboxylic acid butylamide]",pIC50,PDE10A,6.70 to 7.00
"CCn1cc(C(=O)NCCC(C)(C)C)c2cc(OC)c(OC)cc2c1=O [Example 24, 2-Ethyl-6,7-dimethoxy-1-oxo-1,2-dihydro-isoquinoline-4-carboxylic acid (3,3-dimethyl-butyl)-amide]",pIC50,PDE10A,6.30 to 6.70
"CCC(CC)n1cc(C(=O)NCc2scnc2C)c2cc(OC)c(OC)cc2c1=O [Example 249, 6,7-Dimethoxy-N-((4-methylthiazol-5-yl)methyl)-1-oxo-2-(pentan-3-yl)-1,2-dihydroisoquinoline-4-carboxamide]",pIC50,PDE10A,6.30 to 6.70
"CCn1cc(C(=O)NCc2ccccc2CN2CCOCC2)c2cc(OC)c(OC)cc2c1=O [Example 168, 2-Ethyl-6,7-dimethoxy-N-(2-(morpholinomethyl)benzyl)-1-oxo-1,2-dihydroiso-quinoline-4-carboxamide]",pIC50,PDE10A,6.30 to 6.70
"CCn1nc(C(=O)NC2CCc3ncccc32)c2cc(OC)c(OC)cc2c1=O (centres unmarked) [Example 129, 3-Ethyl-6,7-dimethoxy-4-oxo-3,4-dihydro-phthalazine-1-carboxylic acid (6,7-dihydro-5H-[1]pyrindin-5-yl)-amide]",pIC50,PDE10A,> 7.00
"CCn1cc(C(=O)NC2CCc3c(C)cccc32)c2cc(OC)c(OC)cc2c1=O (centres unmarked) [Example 174, 2-Ethyl-6,7-dimethoxy-N-(4-methyl-2,3-dihydro-1H-inden-1-yl)-1-oxo-1,2-dihydroisoquinoline-4-carboxamide]",pIC50,PDE10A,6.30 to 6.70
"CCn1cc(C(=O)NC2CCc3cc(F)ccc32)c2cc(OC)c(OC)cc2c1=O (centres unmarked) [Example 177, 2-Ethyl-N-(5-fluoro-2,3-dihydro-1H-inden-1-yl)-6,7-dimethoxy-1-oxo-1,2-dihydroisoquinoline-4-carboxamide]",pIC50,PDE10A,6.30 to 6.70
"CCn1cc(C(=O)Nc2ccncc2)c2cc(OC)c(OC)cc2c1=O [Example 164, 2-Ethyl-6,7-dimethoxy-1-oxo-N-(pyridin-4-yl)-1,2-dihydroisoquinoline-4-carboxamide]",pIC50,PDE10A,6.30 to 6.70
"CCC(CC)n1cc(C(=O)NCc2ccncc2)c2cc(OC)c(OC)cc2c1=O [Example 261, 6,7-Dimethoxy-1-oxo-2-(pentan-3-yl)-N-(pyridin-4-ylmethyl)-1,2-dihydroisoquinoline-4-carboxamide]",pIC50,PDE10A,6.30 to 6.70
"CCC(CC)n1nc(C(=O)NC2CCc3ncccc32)c2cc(OC)c(OC)cc2c1=O (centres unmarked) [Example 233, 3-(1-Ethyl-propyl)-6,7-dimethoxy-4-oxo-3,4-dihydro-phthalazine-1-carboxylic acid (6,7-dihydro-5H-[1]pyrindin-5-yl)-amide]",pIC50,PDE10A,6.70 to 7.00
"CCn1cc(C(=O)NCc2ccccc2C)c2cc(OC)c(OC)cc2c1=O [Example 154, 2-Ethyl-6,7-dimethoxy-N-(2-methylbenzyl)-1-oxo-1,2-dihydroisoquinoline-4-carboxamide]",pIC50,PDE10A,6.70 to 7.00
"CCC(CC)n1cc(C(=O)NCc2sccc2C)c2cc(OC)c(OC)cc2c1=O [Example 258, 6,7-Dimethoxy-N-((3-methylthiophen-2-yl)methyl)-1-oxo-2-(pentan-3-yl)-1,2-dihydroisoquinoline-4-carboxamide]",pIC50,PDE10A,6.70 to 7.00
"CCn1cc(C(=O)NC2CCc3sccc32)c2cnc(OC)cc2c1=O (centres unmarked) [Example 230, 2-Ethyl-7-methoxy-1-oxo-1,2-dihydro-[2,6]naphthyridine-4-carboxylic acid (5,6-dihydro-4H-cyclopenta[b]thiophen-4-yl)-amide]",pIC50,PDE10A,6.70 to 7.00
"CCn1cc(C(=O)NCc2ccccc2Cl)c2cc(OC)c(OC)cc2c1=O [Example 162, N-(2-Chlorobenzyl)-2-ethyl-6,7-dimethoxy-1-oxo-1,2-dihydroisoquinoline-4-carboxamide]",pIC50,PDE10A,6.30 to 6.70
"CCn1cc(C(=O)NCc2ccc(C)cc2OCC2CC2)c2cc(OC)c(OC)cc2c1=O [Example 290, N-[[2-(Cyclopropylmethoxy)-4-methyl-phenyl]methyl]-2-ethyl-6,7-dimethoxy-1-oxo-isoquinoline-4-carboxamide]",pIC50,PDE10A,6.30 to 6.70
"CCn1cc(C(=O)NCc2c(F)cccc2F)c2cc(OC)c(OC)cc2c1=O [Example 35, 2-Ethyl-6,7-dimethoxy-1-oxo-1,2-dihydro-isoquinoline-4-carboxylic acid 2,6-difluoro-benzylamide]",pIC50,PDE10A,6.30 to 6.70
"CCCCNC(=O)c1cn(CC)c(=O)c2cc(OC)c(OC)cc12 [Example 1, 2-Ethyl-6,7-dimethoxy-1-oxo-1,2-dihydro-isoquinoline-4-carboxylic acid butylamide]",pIC50,PDE10A,6.70 to 7.00
"CCn1cc(C(=O)NCc2cc(F)cc(F)c2)c2cc(OC)c(OC)cc2c1=O [Example 37, 2-Ethyl-6,7-dimethoxy-1-oxo-1,2-dihydro-isoquinoline-4-carboxylic acid 3,5-difluoro-benzylamide]",pIC50,PDE10A,6.70 to 7.00
"CCn1cc(C(=O)NCc2cccnc2)c2cc(OC)c(OC)cc2c1=O [Example 148, 2-Ethyl-6,7-dimethoxy-1-oxo-N-(pyridin-3-ylmethyl)-1,2-dihydroisoquinoline-4-carboxamide]",pIC50,PDE10A,6.30 to 6.70
